Data as given in patent publication US8541670B2, “Compositions and methods for inhibiting tumor cell growth” (priority 2007, dated 2013).
Where no end group is shown, it is not given here. red fluorescent dye = not defined here

What was measured:
PKA, PKC, CDKs = assay: In vivo phosphorylation of substrates of PKA, PKC, CDKs (consensus-site phospho-specific antibodies); set-up: species or system mouse; conditions: after in vivo injection
Protocol: To analyze in vivo selectivity, ZaTa was injected into one hemisphere and DMSO in the other hemisphere, as above, and a series of western blot analyses was preformed with phospho-specific antibodies which recognize a phosphorylated substrate or each one of the kinases that ZaTa inhibited at higher concentrations in vitro. […] Given the high functional and structural homology between p70S6K and AKT, the in vivo inhibitory effect of ZaTa on p70S6K was contemplated. Furthermore, the in vivo effect of ZaTa on the phosphorylation levels of substrates for PKA, PKC, CDKs using phospho-specific antibodies recognizing the phosphorylated consensus sites of these kinases was analyzed. In contrast to the consistent decrease in phosphorylation of AKT substrates, significant changes in the phosphorylation level of PKA, PKC and CDKs substrates was not observed after in vivo injection of ZaTa. […]

PAK3 = PAK3 (Homo sapiens, UniProt O75914); assay: Cell-based kinase assay, phosphorylation of intracellular substrate (Ser-338 cRaf)
Protocol: As a specific substrate, the phosphorylation level of GSK-3[…] at Ser-9 was also evaluated. […] The decrease was specific to the AKT phosphorylation site on GSK-3[…] at Ser-9, since a change in the phosphorylation level of GSK-3[…] at Tyr-216 or GSK-3[…] at Tyr-279 was not observed. Moreover, the in vivo reduction of the phosphorylation of AKT substrates was more obvious at the injection site, since a significant change in the phosphorylation of AKT substrates in the frontal cortex or cerebellum between the two hemispheres was not observed. […] To test the specificity/selectivity of ZaTa as the inhibitor of AKT1 versus the other major kinases, a series of in vitro kinase assays was performed at IC50 for AKT1 and at ten times higher concentrations. […]
Phosphorylation sites for kinases analyzed herein included Ser-235/236 S6 (a substrate for p70S6K), Tyr-207 CRKL (a substrate for Abl; Zipfel, et al. (2004) supra), Ser-241 PDK1 (a substrate for PI3K), Tyr-1022/1023 JAK1 (a substrate for JAK3; Wang, et al. (2003) supra), Ser-421 Huntingtin (a substrate for SGK; Rangone, et al. (2004) supra), Tyr-783 PLC (a substrate for TrkB; Middlemas, et al. (1994) supra), and Ser-338 cRaf (a substrate for PAK3; King, et al. (1998) supra).

PAK3, sequence (O75914 whole entry, species assumed): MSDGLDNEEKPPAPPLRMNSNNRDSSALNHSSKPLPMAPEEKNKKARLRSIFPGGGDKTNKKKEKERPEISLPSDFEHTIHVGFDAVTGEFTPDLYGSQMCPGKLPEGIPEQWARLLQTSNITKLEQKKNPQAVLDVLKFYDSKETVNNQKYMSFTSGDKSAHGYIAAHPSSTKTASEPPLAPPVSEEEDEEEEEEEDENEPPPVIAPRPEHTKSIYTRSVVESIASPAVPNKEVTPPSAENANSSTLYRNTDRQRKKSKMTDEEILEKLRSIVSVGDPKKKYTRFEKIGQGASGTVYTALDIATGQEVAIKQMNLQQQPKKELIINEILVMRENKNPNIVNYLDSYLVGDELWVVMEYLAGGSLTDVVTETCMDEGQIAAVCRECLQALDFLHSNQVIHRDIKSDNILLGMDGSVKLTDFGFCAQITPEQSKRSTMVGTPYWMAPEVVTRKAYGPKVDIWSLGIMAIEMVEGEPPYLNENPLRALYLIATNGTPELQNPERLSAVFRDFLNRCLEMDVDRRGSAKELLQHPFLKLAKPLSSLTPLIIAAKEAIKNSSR

## AKRVKGRTWTLCGTPEY [ZaTa]
PKA, PKC, CDKs
  changes in phosphorylation level of PKA, PKC and CDKs substrates: not observed

## labeled ZaTa: ZaTa peptide labeled with a red fluorescent dye at its N-terminus ({red fluorescent dye}-AKRVKGRTWTLCGTPEY; reading uncertain)
PAK3
  inhibition of PAK3 in cells: did not cause inhibition
